Data: the CheMixHub ionic liquid set
± gives the uncertainty stated by the source.

Assay: xn = mol fraction of the nth substance listed

CC[n+]1ccn(C)c1.[Cl-] + NCCNCCN + OCCO
viscosity [mPa·s], 100 kPa
Details | 293 K | 303 K | 313 K | 323 K | 333 K | 343 K | 353 K
x2 = 0.25, x3 = 0.25 | 64.8 ± 6.5 | 43.2 ± 4.4 | 29.5 ± 3 | 20.6 ± 2.1 | 14.7 ± 1.5 | 10.7 ± 1.1 | 8 ± 0.8
x2 = 0.333, x3 = 0.333 | 144 ± 15 | 91.9 ± 9.3 | 60.4 ± 6.1 | 40.8 ± 4.1 | 28.2 ± 2.8 | 19.9 ± 2 | 14.3 ± 1.4
x2 = 0.4, x3 = 0.2 | 106 ± 11 | 68.1 ± 6.9 | 44.7 ± 4.5 | 30.2 ± 3.1 | 20.9 ± 2.1 | 14.7 ± 1.5 | 10.6 ± 1.1
x2 = 0.429, x3 = 0.143 | 103 ± 10 | 66.5 ± 6.7 | 44.2 ± 4.5 | 30.1 ± 3.1 | 21 ± 2.2 | 15 ± 1.5 | 10.9 ± 1.1
x2 = 0.5, x3 = 0.25 | 124 ± 13 | 80.8 ± 8.2 | 53.9 ± 5.4 | 36.9 ± 3.7 | 25.8 ± 2.6 | 18.5 ± 1.9 | 13.4 ± 1.4

CCCC[N+](CCCC)(CCCC)CCCC.[Cl-] + N[C@@H](CO)C(=O)O
101 kPa
Details | electrical conductivity, 313.15 K [S/m] | electrical conductivity, 323.15 K [S/m] | electrical conductivity, 333.15 K [S/m] | electrical conductivity, 343.15 K [S/m] | electrical conductivity, 353.15 K [S/m] | viscosity, 313.15 K [mPa·s] | viscosity, 323.15 K [mPa·s] | viscosity, 333.15 K [mPa·s] | viscosity, 343.15 K [mPa·s] | viscosity, 353.15 K [mPa·s]
x2 = 0.09091 | 0.024 ± 0.001 | 0.035 ± 0.001 | 0.06 ± 0.001 | 0.09 ± 0.001 | 0.13 ± 0.0013 | 1110 ± 350 | 490 ± 120 | 260 ± 47 | 141 ± 20 | 86 ± 10
x2 = 0.1 | 0.0298 ± 0.001 | 0.0451 ± 0.001 | 0.0631 ± 0.001 | 0.093 ± 0.001 | 0.136 ± 0.0014 | 1220 ± 390 | 600 ± 150 | 297 ± 57 | 158 ± 23 | 97 ± 11
x2 = 0.1111 | 0.0102 ± 0.001 | 0.0181 ± 0.001 | 0.0425 ± 0.001 | 0.0933 ± 0.001 | 0.136 ± 0.0014 | 1000 ± 300 | 480 ± 110 | 237 ± 42 | 135 ± 18 | 83 ± 9

CCCC[n+]1ccn(C)c1.[Br-] + N[C@@H](CO)C(=O)O + O
viscosity [mPa·s], 101.3 kPa
Details | 293.15 K | 298.15 K | 303.15 K | 308.15 K | 313.15 K
x2 = 0, x1 = 0.0007203 | – | – | – | – | 0.673 ± 0.06
x2 = 0.0003632, x1 = 0.00072 | 1.028 ± 0.061 | 0.917 ± 0.061 | 0.824 ± 0.061 | 0.747 ± 0.06 | 0.681 ± 0.06
x2 = 0.0003661, x1 = 0.001439 | 1.051 ± 0.061 | 0.94 ± 0.061 | 0.847 ± 0.061 | 0.77 ± 0.061 | 0.704 ± 0.06
x2 = 0.0007261, x1 = 0.0007198 | 1.033 ± 0.061 | 0.922 ± 0.061 | 0.829 ± 0.061 | 0.751 ± 0.06 | 0.684 ± 0.06
x2 = 0.0007318, x1 = 0.001438 | 1.056 ± 0.061 | 0.945 ± 0.061 | 0.852 ± 0.061 | 0.773 ± 0.061 | 0.707 ± 0.06
x2 = 0.001089, x1 = 0.0007195 | 1.037 ± 0.061 | 0.927 ± 0.061 | 0.833 ± 0.061 | 0.755 ± 0.06 | 0.688 ± 0.06
x2 = 0.001097, x1 = 0.001438 | 1.061 ± 0.061 | 0.95 ± 0.061 | 0.856 ± 0.061 | 0.778 ± 0.061 | 0.711 ± 0.06
x2 = 0.001451, x1 = 0.0007192 | 1.043 ± 0.061 | 0.931 ± 0.061 | 0.838 ± 0.061 | 0.759 ± 0.061 | 0.693 ± 0.06
x2 = 0.001463, x1 = 0.001437 | 1.067 ± 0.061 | 0.954 ± 0.061 | 0.861 ± 0.061 | 0.782 ± 0.061 | 0.716 ± 0.06
x2 = 0.001808, x1 = 0.001437 | 1.072 ± 0.061 | 0.959 ± 0.061 | 0.865 ± 0.061 | 0.787 ± 0.061 | 0.72 ± 0.06
x2 = 0.001813, x1 = 0.000719 | 1.047 ± 0.061 | 0.936 ± 0.061 | 0.842 ± 0.061 | 0.764 ± 0.061 | 0.697 ± 0.06
x2 = 0.002175, x1 = 0.0007187 | 1.053 ± 0.061 | 0.941 ± 0.061 | 0.847 ± 0.061 | 0.768 ± 0.061 | 0.702 ± 0.06
x2 = 0.002192, x1 = 0.001436 | 1.076 ± 0.061 | 0.963 ± 0.061 | 0.87 ± 0.061 | 0.791 ± 0.061 | 0.725 ± 0.06
x2 = 0.002537, x1 = 0.0007185 | 1.057 ± 0.061 | 0.946 ± 0.061 | 0.851 ± 0.061 | 0.773 ± 0.061 | 0.706 ± 0.06
x2 = 0.002557, x1 = 0.001436 | 1.082 ± 0.061 | 0.968 ± 0.061 | 0.874 ± 0.061 | 0.796 ± 0.061 | 0.729 ± 0.06
